{"source": "patent US20070169671A1", "about": "“Mold Inhibiting Admixture for a Cementitious Material” (priority 2006, published 2007)", "test_system": "mold", "test": "Mold growth on inoculated cementitious material samples", "type": "cell-based", "details": "cementitious materials formed from mixtures including calcium propionate solutions (0.05, 0.1, 0.2% by weight of concrete ingredients); inoculated with a composition of mold; after two weeks in an environment conducive of mold growth", "excerpt": "Samples of cementitious materials formed from a cementitious mixture including the calcium propionate solutions were inoculated with a composition of mold and placed in an environment conducive of mold growth."}
{"molecule": "CCC(=O)[O-].CCC(=O)[O-].[Ca+2]", "note": "[calcium propionate]", "values": [{"measurement": "mold propagation on the cementitious materials", "value": "no mold propagation was observed"}]}
